Key:
THP-1 dual cells = experiment: Type 1 IFN activation assay (THP-1 dual cells, QUANTI-Luc); type: cell-based; settings: PMA-treated THP-1 dual cells, compound in digitonin PB buffer 30 min, then 24 h, expression level of IFN
Procedure: Plated THP-1 dual cells (Invivogen) as 100000 cells/well in a 96 well-plate, and then phorbol 12-myristate 13-acetate (PMA) was added and the final concentration of PMA was 30 ng/mL. After 24 h incubation, cells were washed with fresh medium for twice, and 3-folds dilution compounds were added to appropriate wells. The compounds were diluted by PB buffer (50 mM HEPES, 100 mM KCl, 3 mM MgCl2, 0.1 mM DTT, 85 mM sucrose, 1 mM ATP, 0.1 mM GTP, 0.2% o bovine serum albumin and 5 μg/ml digitonin) and the top dose was 10 μM, minimum dose was 0.0015 μM. The cells were incubated for 30 min, and then washed with fresh medium for twice again. Add fresh medium, and the cells were incubated for additional 24 h. After incubation, 10 ul supermant and 50 μL QUANTI-Luc (Invivogen) was add to a 96 well-plate, fluorescence was read with TECAN. The express level of IFN was proportional to the fluorescence intensity. Drew the curve with Graphpad Prism and analyse EC50 of the compounds.

STING = STING (Homo sapiens, UniProt Q86WV6); experiment: STING IFNβ secretion assay (THP-1 cells, AlphaLISA IFN-β kit); type: cell-based; settings: 5 h incubation, secretion of IFN-β
Procedure: Plated 40 uL THP-1 cells (ATCC) as 16000 cells/well in a 96 well-plate (Corning, 3596). 3-folds dilution compounds were added to appropriate wells. The compounds were diluted with buffer (RPMI1640+2 mM L-glutamine+1× non-essential amino acids+1 mM sodium pyruvate+0.5% Fetal bovine serum), and the top dose of the compound was 100 μM, minimum dose was 1.23 μM. After 5 h incubation, […] supernant was added to 384-well plate (Greiner, Cat: 784075) and the secretion of IFN-β was detected with AllphaLISA IFN-β kit(PerkinElmer, Cat:AL577C). 1× buffer was prepared to dilute the receptor and donor, and then 4 μL 20 μg/mL Anti-pIFNβ AlphaLISA receptor was added to every well. After 30 mins incubation at room temperature, 4 μL 2 nM biotinylated Anti-pIFNβ antibody was added to a 384 well-plate, incubated overnight at 4° C. 10 μL 40 µg/mL Streptavidin (SA) donor which was diluted with 1×buffer was added, and then incubated at room temperature for 30 min. Fluorescence was read with TECAN. The expressed level of IFN-β was proportional to the fluorescence intensity. Drew the curve with Graphpad Prism and analysed EC50 of the compounds.

Sequence of STING (Q86WV6 whole entry): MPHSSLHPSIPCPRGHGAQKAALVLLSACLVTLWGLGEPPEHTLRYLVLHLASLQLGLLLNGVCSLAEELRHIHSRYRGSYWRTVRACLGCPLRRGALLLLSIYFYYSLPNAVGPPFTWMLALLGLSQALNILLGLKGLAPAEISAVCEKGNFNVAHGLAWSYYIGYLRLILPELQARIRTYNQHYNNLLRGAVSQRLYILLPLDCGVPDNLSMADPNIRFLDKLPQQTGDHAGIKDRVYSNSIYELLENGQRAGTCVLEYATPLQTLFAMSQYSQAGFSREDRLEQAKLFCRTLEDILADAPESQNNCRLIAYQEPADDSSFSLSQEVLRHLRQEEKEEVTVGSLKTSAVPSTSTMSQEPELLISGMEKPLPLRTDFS

Row | SMILES | EC50 (THP-1 dual cells) [µM] | EC50 (THP-1 dual cells; Homo sapiens, THP1-Dual) [µM] | EC50 (STING) [µM]
1 | Nc1ncnc2c1ncn2[C@@H]1O[C@@H]2COP(=O)(S)O[C@@H]3[C@H](O)[C@@H](COP(=O)(S)O[C@H]2[C@H]1O)O[C@H]3n1c(=O)sc2c(N)ncnc21 (some centres unmarked) [Compound 2-p1] | 45.8 |  | 
2 | Nc1ncnc2c1ncn2C1OC2COP(=O)(S)OC3C(O)C(COP(=O)(S)OC2C1F)OC3n1c(=O)sc2c(N)ncnc21 (centres unmarked) [Compound 4-p2] |  | 0.625 | 36.2
3 | Nc1nc2c(ncn2[C@@H]2O[C@@H]3COP(=O)(S)O[C@H]4[C@@H](O)[C@H](n5cnc6ccccc6c5=O)O[C@@H]4COP(=O)(S)O[C@@H]2[C@@H]3O)c(=O)[nH]1 (some centres unmarked) [Compound 10-p1] | 70.7 |  | 
4 | Nc1ncnc2c1ncn2[C@@H]1O[C@@H]2COP(=O)(S)O[C@@H]3C(O)[C@@H](COP(O)(=S)O[C@H]2[C@H]1O)O[C@H]3n1cnc2c(N)ncnc21 (some centres unmarked) [Ref. 1, MLRR-CDA, reference compound] | 2.94 |  | 

The next lines start with the values.

Row | EC50 (THP-1 dual cells) [µM] | EC50 (THP-1 dual cells; Homo sapiens, THP1-Dual) [µM] | EC50 (STING) [µM] | SMILES
5 | > 10 |  |  | Nc1ncnc2c1ncn2[C@@H]1O[C@@H]2COP(=O)(S)O[C@@H]3[C@H](O)[C@@H](COP(=O)(S)O[C@H]2[C@H]1O)O[C@H]3n1c(=O)[nH]c2c(N)ncnc21 (some centres unmarked) [Compound 1-p1]
6 | 0.417 |  | 94.4 | Nc1ncnc2c1ncn2C1OC2COP(=O)(S)OC3C(O)C(COP(=O)(S)OC2C1F)OC3n1c(=O)sc2c(N)ncnc21 (centres unmarked) [Compound 4-p3]
7 | 2.27 |  |  | CO[C@H]1[C@H]2OP(=O)(S)OC[C@H]3O[C@@H](n4cnc5c(N)ncnc54)[C@H](F)[C@@H]3OP(=O)(S)OC[C@H]1O[C@H]2n1c(=O)sc2c(N)ncnc21 (some centres unmarked) [Compound 6-p1]
8 | 60.8 |  |  | Nc1nc2c(ncn2[C@@H]2O[C@@H]3COP(=O)(S)O[C@H]4[C@@H](O)[C@H](n5cnc6ncccc6c5=O)O[C@@H]4COP(=O)(S)O[C@@H]2[C@@H]3O)c(=O)[nH]1 (some centres unmarked) [Compound 11-p1]
9 | 188 |  |  | Nc1nc2c(ncn2[C@@H]2O[C@@H]3COP(=O)(S)O[C@H]4[C@@H](O)[C@H](n5ccc6nccn6c5=O)O[C@@H]4COP(=O)(S)O[C@@H]2[C@@H]3O)c(=O)[nH]1 (some centres unmarked) [Compound 13-p1]

From patent US12152051B2, “Cyclic dinucleotide analogue, pharmaceutical composition thereof, and application” (SHANGHAI DE NOVO PHARMATECH CO., LTD., priority 2018, dated 2024)
